Results from article PMC12304826, “Redirecting the Peptide Cleavage Causes Protease Inactivation” (Angewandte Chemie (International Ed. in English), 2025).
Like-named read-outs stand apart in the source and are kept apart here.

What was measured:
[1] = target: T1, human cathepsin L (Homo sapiens, UniProt P07711); assay: Cathepsin L inhibition assay (Cbz-Phe-Arg-pNA); type: biochemical
T1 construct: purchased Enzo Life Sciences, Lörrach, Germany
Procedure: 1. Enzyme Inhibition Assays and Kinetic Data of Inhibition of Cathepsins B, L, K and S General. Human cathepsins were assayed either fluorimetrically or spectrophotometrically as noted below. The 10 mM inhibitor solutions were prepared in DMSO. The final concentration of DMSO in all assays was 2%. Non-linear regressions were conducted with GraFit 5. Residual cathepsin activity at an inhibitor concentration of 20 µM was determined from duplicate measurements based on the product formation after 60 min. Concentration dependent measurements were performed in duplicate measurements with five different inhibitor concentrations when the residual cathepsin activity in the presence of 20 µM inhibitor was below 70% (cathepsin B) or below 50% (cathepsins cathepsins L, K, and S). Progress curves were monitored for 60 min. First-order rate constants, kobs, were determined by non-linear regression following the equation [P] = vi × (1 – exp(-kobs × t))/kobs + d, where [P] is the product concentration, vi is the initial product formation rate, kobs is the observed first-order rate constant, and d is the offset. Mean values of kobs were plotted versus corresponding inhibitor concentrations [I], and second-order rate constants of inactivation, kinac/Ki, were obtained by linear regression. The equation kobs/[I] = (kinac/Ki)/(1 + [S]/Km) was used, where [S] is the substrate concentration and Km is the Michaelis-Menten constant. Standard errors (SE) refer to the linear regression. […] Cathepsin L inhibition assay.[1] Human isolated cathepsin L (Enzo Life Sciences, Lörrach, Germany) was assayed spectrophotometrically on a Cary 50 or 100 Bio, Varian, at 405 nm. The reactions were followed at 37 °C. Assay buffer was 100 mM sodium phosphate buffer pH 6.0, 100 mM NaCl, 5 mM EDTA, and 0.01% Brij 35. A stock solution of human cathepsin L of 135 μg/mL in 20 mM malonate buffer pH 5.5, 400 mM NaCl, and 1 mM EDTA was diluted 1:100 with assay buffer containing 5 mM DTT and incubated for 30 min at 37 °C. A 10 mM stock solution of the chromogenic substrate Cbz-Phe-Arg-pNA was prepared in DMSO. The final concentration of the substrate was 100 μM (= 5.88 Km).
Into a cuvette containing 940 μL assay buffer, inhibitor solution and DMSO in a total volume of 10 μL, and 10 μL of the substrate solution were added and mixed. The reaction was initiated by adding 40 μL of the cathepsin L solution.

[2] = target: T2, human cathepsin K (Homo sapiens, UniProt P43235); assay: Cathepsin K inhibition assay (Cbz-Leu-Arg-AMC); type: biochemical; conditions: for kinac/Ki ± SE Cat K: five inhibitor concentrations, 60 min progress curves
T2 construct: purchased Enzo Life Sciences, Lörrach, Germany
T2 sequence (P43235 115-329): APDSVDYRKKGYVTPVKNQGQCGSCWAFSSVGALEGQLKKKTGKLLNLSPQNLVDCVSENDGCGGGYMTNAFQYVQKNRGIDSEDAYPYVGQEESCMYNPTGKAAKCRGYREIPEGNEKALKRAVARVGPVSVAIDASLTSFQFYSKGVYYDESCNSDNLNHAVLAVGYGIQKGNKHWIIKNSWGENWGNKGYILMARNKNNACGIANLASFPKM
Procedure: 1. Enzyme Inhibition Assays and Kinetic Data of Inhibition of Cathepsins B, L, K and S General. Human cathepsins were assayed either fluorimetrically or spectrophotometrically as noted below. The 10 mM inhibitor solutions were prepared in DMSO. The final concentration of DMSO in all assays was 2%. Non-linear regressions were conducted with GraFit 5. Residual cathepsin activity at an inhibitor concentration of 20 µM was determined from duplicate measurements based on the product formation after 60 min. Concentration dependent measurements were performed in duplicate measurements with five different inhibitor concentrations when the residual cathepsin activity in the presence of 20 µM inhibitor was below 70% (cathepsin B) or below 50% (cathepsins cathepsins L, K, and S). Progress curves were monitored for 60 min. First-order rate constants, kobs, were determined by non-linear regression following the equation [P] = vi × (1 – exp(-kobs × t))/kobs + d, where [P] is the product concentration, vi is the initial product formation rate, kobs is the observed first-order rate constant, and d is the offset. Mean values of kobs were plotted versus corresponding inhibitor concentrations [I], and second-order rate constants of inactivation, kinac/Ki, were obtained by linear regression. The equation kobs/[I] = (kinac/Ki)/(1 + [S]/Km) was used, where [S] is the substrate concentration and Km is the Michaelis-Menten constant. Standard errors (SE) refer to the linear regression. […] Cathepsin K inhibition assay.[1] Human recombinant cathepsin K (Enzo Life Sciences, Lörrach, Germany) was assayed fluorimetrically on a Monaco Safas spectrofluorometer flx or a Fluostar OPTIMA plate reader (BMG Labtech, Ortenberg, Germany). The wavelength for excitation was 360 nm and for emission 440 nm. The reactions were followed at 25 °C. A human cathepsin K stock solution of 23 µg/mL in 50 mM sodium acetate pH 5.5, 50 mM NaCl, 0.5 mM EDTA, 5 mM DTT was diluted 1:100 with assay buffer (100 mM sodium citrate pH 5.0, 100 mM NaCl, 1 mM EDTA, 0.01% CHAPS) containing 5 mM DTT and incubated for 30 min at 37 °C. A 10 mM stock solution of the 7-amino-4-methyl-coumarin (AMC)-based fluorogenic substrate Cbz-Leu-Arg-AMC was prepared in DMSO. The final concentration of the substrate was 40 μM (= 13.3 Km). When using the spectrofluorometer, into a cuvette containing 960 μL assay buffer, inhibitor solution and DMSO in a total volume of 16 μL, and 4 μL of the substrate solution were added and mixed. The reaction was initiated by adding 20 µL of the cathepsin K solution. When using the plate reader, into a well containing 192 µL assay buffer, inhibitor solution and DMSO in a total volume of 3.2 µL and 0.8 µL of the substrate solution were added and mixed. The reaction was initiated by adding 4 µL of the cathepsin K solution.
Cathepsin S inhibition assay.[2] […]
DTT, 0.5% Triton X-100 and 30% glycerol was diluted 1:100 with a 50 mM sodium phosphate buffer pH 6.5, 50 mM NaCl, 2 mM EDTA, 0.01% Triton X-100 and 5 mM DTT and incubated for 60 min at 37 °C. A 10 mM stock solution of the fluorogenic substrate Cbz-Phe-Arg-AMC was prepared in DMSO.
The assay was performed with a final substrate concentration of 40 µM (= 0.74 Km). When using the spectrofluorometer, into a cuvette containing 920 μL assay buffer, inhibitor solution and DMSO in a total volume of 16 μL, and 4 μL of the substrate solution were added and mixed. The reaction was initiated by adding 60 μL of the cathepsin S solution. When using the plate reader, into a well containing 188 µL assay buffer, inhibitor solution and DMSO in a total volume of 3.2 µL and 0.8 µL of the substrate solution were added and mixed. The reaction was initiated by adding […] of the cathepsin S solution.

[3] = 20 µM inhibitor, 60 min, read-out: Residual activity @ 20 µM (%) Cat L
[4] = 20 µM inhibitor, 60 min, read-out: Residual activity @ 20 µM (%) Cat K
[5] = inhibitor not soluble at 20 µM, calculated for 20 µM from IC50 at two lower concentrations, read-out: Residual activity @ 20 µM (%) Cat L, approximated [e]
[6] = inhibitor not soluble at 20 µM, calculated for 20 µM from IC50 at two lower concentrations, read-out: Residual activity @ 20 µM (%) Cat K, approximated [e]

T1 sequence (P07711 114-333): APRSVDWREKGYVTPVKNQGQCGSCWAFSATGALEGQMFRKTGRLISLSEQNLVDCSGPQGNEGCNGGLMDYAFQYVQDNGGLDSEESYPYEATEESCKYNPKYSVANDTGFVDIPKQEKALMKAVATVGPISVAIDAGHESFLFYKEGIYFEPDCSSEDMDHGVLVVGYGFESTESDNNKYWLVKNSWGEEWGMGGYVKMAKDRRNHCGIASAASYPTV

| Structure (SMILES) | remaining activity at 20 µM [1, 3] [%] | remaining activity at 20 µM [2, 4] [%] | kinac/Ki ± SE Cat K [2] [M⁻¹ s⁻¹] | remaining activity at 20 µM [1, 5] [%] | remaining activity at 20 µM [2, 6] [%] |
| --- | --- | --- | --- | --- | --- |
| CC(C)CC(NC(=O)Oc1ccccc1)C(=O)NC(Cc1ccccc1)C(=O)O (stereo not drawn) [Compound 1] | 94 | 77 | – | – | – |
| CC(C)C[C@H](NC(=O)Oc1ccc(Cl)cc1)C(=O)N[C@@H](Cc1ccccc1)C(=O)OC(C)(C)C [Compound 2] | 96 | 93 | – | – | – |
| COC(=O)C(Cc1ccccc1)NC(=O)C(CC(C)C)NC(=O)Oc1ccc(Cl)cc1 (stereo not drawn) [Compound 3] | 85 | ≥ 98 | – | – | – |
| CC(C)C[C@H](NC(=O)Oc1ccc(Cl)cc1)C(=O)N[C@@H](Cc1ccccc1)C(=O)O [Compound 4] | 92 | 92 | – | – | – |
| CC(C)CC(CNC(=O)Oc1ccc(Cl)cc1)C(=O)N[C@H](Cc1ccccc1)C(=O)O (stereo partly drawn) [Compound 5] | 90 | 70 | – | – | – |
| O=C(NC(CC1CCCCC1)C(=O)NC(Cc1ccccc1)C(=O)O)Oc1ccc(Cl)cc1 (stereo not drawn) [Compound 7] | 86 | 60 | – | – | – |
| CC(C)C[C@H](NC(=O)Oc1ccc(Cl)cc1)C(=O)N1CCC[C@H]1C(=O)O [Compound 8] | 97 | 91 | – | – | – |
| CC(C)CC(CNC(=O)Oc1ccc(Cl)cc1)C(=O)N1CCC[C@@H]1C(=O)O (stereo partly drawn) [Compound 9] | 95 | 85 | – | – | – |
| CC(C)C[C@H](NC(=O)Oc1ccc(Cl)cc1)C(=O)N1CCCC[C@H]1C(=O)O [Compound 10] | 91 | 93 | – | – | – |
| CC(C)C[C@@H](C(=O)N1CCC[C@H]1C(=O)O)N(C)C(=O)Oc1ccc(Cl)cc1 [Compound 15] | 97 | 91 | – | – | – |
| CC(C)CC(OC(=O)Nc1ccc(Cl)cc1)C(=O)N[C@@H](Cc1ccccc1)C(=O)O (stereo partly drawn) [Compound 16] | 95 | – | 185 | – | – |
| CC(C)CC(OC(=O)Nc1ccc(Cl)cc1)C(=O)N1CCC[C@H]1C(=O)O (stereo partly drawn) [Compound 17] | 94 | 95 | – | – | – |
| CC(C)C[C@H](NC(=O)Nc1ccc(Cl)cc1)C(=O)N[C@@H](Cc1ccccc1)C(=O)O [Compound 18] | 94 | 87 | – | – | – |
| CC(C)C[C@H](NC(=O)Nc1ccc(Cl)cc1)C(=O)N1CCC[C@H]1C(=O)O [Compound 19] | 96 | 92 | – | – | – |
| CC(C)C[C@H](NC(=O)Oc1ccc(Cl)c(NC(=O)Cc2ccccc2)c1)C(=O)N1CCC[C@H]1C(=O)O [Compound 20] | 96 | 82 | – | – | – |
| CC(C)C[C@H](NC(=O)Oc1ccc(-c2ccccc2)c(NC(=O)Cc2ccccc2)c1)C(=O)N1CCC[C@H]1C(=O)O [Compound 21] | 92 | 73 | – | – | – |
| CC(C)CC(NC(=O)Oc1ccc(Cl)c(NC(=O)C(c2ccccc2)c2ccccc2)c1)C(=O)N1CCCC1C(=O)O (stereo not drawn) [Compound 22] | – | 87 | – | 59 | – |
| CC(C)C[C@H](NC(=O)Oc1cccc(Cl)c1)C(=O)N1CCC[C@H]1C(=O)O [Compound 23] | 92 | 87 | – | – | – |
| CC(C)C[C@H](NC(=O)Oc1ccc(NC(=O)Cc2ccccc2)c(Cl)c1)C(=O)N1CCC[C@H]1C(=O)O [Compound 24] | 97 | 95 | – | – | – |
| CC(C)CC(NC(=O)Oc1ccc(NC(=O)c2ccc(-c3ccccc3)cc2)c(Cl)c1)C(=O)N1CCCC1C(=O)O (stereo not drawn) [Compound 25] | 94 | – | – | – | 76 |
| CC(C)C[C@H](NC(=O)Oc1ccc(NC(=O)N(Cc2ccccc2)Cc2ccccc2)c(Br)c1)C(=O)N1CCC[C@H]1C(=O)O [Compound 26] | – | 83 | – | – | – |
| CC(C)CC(NC(=O)Oc1ccc(NC(=O)C(c2ccccc2)c2ccccc2)c(Br)c1)C(=O)N1CCCC1C(=O)O (stereo not drawn) [Compound 27] | 81 | 90 | – | – | – |
| CC(C)CC(NC(=O)Oc1ccc(NC(=O)C(c2ccccc2)c2ccccc2)c(Cl)c1)C(=O)N1CCCC1C(=O)O (stereo not drawn) [Compound 28] | – | 83 | – | 62 | – |
| CC(C)CC(NC(=O)Oc1ccc(NC(=O)C(c2ccccc2)c2ccccc2)c(Cl)c1)C(=O)NC(Cc1ccccc1)C(=O)O (stereo not drawn) [Compound 29] | – | – | – | 70 | 8 |
| O=C(NC(CC1CCCCC1)C(=O)NC(Cc1ccccc1)C(=O)O)Oc1ccc(NC(=O)C(c2ccccc2)c2ccccc2)c(Cl)c1 (stereo not drawn) [Compound 30] | – | – | 3490 | 64 | – |
| O=C(NC(CC1CCCCC1)C(=O)NC(Cc1ccccc1)C(=O)O)Oc1ccc(NC(=O)C(Cc2ccccc2)Cc2ccccc2)c(Cl)c1 (stereo not drawn) [Compound 31] | – | – | 23.1 | 76 | – |
